Where a name gives a salt, the structure may show the parent alone. Read-outs that look alike come from different tables or passages of the source.
Experiments:
Assay in all cases: AK assay 384-well format, Prestwick library screening
[1] = system: E. coli; assay type: cell-based, Escherichia coli; conditions: 50 μM final drug concentration; for fold induction at 50 µM: Escherichia coli, 3 h; for AK-based Prestwick Library Screening Results, E. coli (fold increase in extracellular AK activity): cutoff for positive 3-fold increase
[2] = system: A. baumannii strain 98-37-09; assay type: cell-based, Acinetobacter baumannii; conditions: 50 μM final drug concentration; for fold induction at 50 µM: Acinetobacter baumannii, 983709, 3 h; for AK-based Prestwick Library Screening Results, A. baumannii (fold increase in extracellular AK activity): cutoff for positive 3-fold increase
[3] = system: E. faecium; assay type: cell-based, Enterococcus faecium; conditions: 50 μM final drug concentration; for fold induction at 50 µM: Enterococcus faecium, 3 h; for AK-based Prestwick Library Screening Results, E. faecium (fold increase in extracellular AK activity): cutoff for positive 3-fold increase
[4] = system: E. cloacae; assay type: cell-based, Enterobacter cloacae; conditions: 50 μM final drug concentration; for fold induction at 50 µM: Enterobacter cloacae, 3 h; for AK-based Prestwick Library Screening Results, E. cloacae (fold increase in extracellular AK activity): cutoff for positive 3-fold increase
[5] = system: S. aureus strain USA300-0114; assay type: cell-based, Staphylococcus aureus; conditions: 50 μM final drug concentration; for fold induction at 50 µM: Staphylococcus aureus, USA300, 3 h; for AK-based Prestwick Library Screening Results, S. aureus (fold increase in extracellular AK activity): cutoff for positive 3-fold increase
[6] = system: P. aeruginosa; assay type: cell-based, Pseudomonas aeruginosa; conditions: 50 μM final drug concentration; for fold induction at 50 µM: Pseudomonas aeruginosa, 3 h; for AK-based Prestwick Library Screening Results, P. aeruginosa (fold increase in extracellular AK activity): cutoff for positive 3-fold increase
[7] = system: K. pneumoniae; assay type: cell-based, Klebsiella pneumoniae; conditions: 50 μM final drug concentration; for fold induction at 50 µM: Klebsiella pneumoniae, 3 h; for AK-based Prestwick Library Screening Results, K. pneumoniae (fold increase in extracellular AK activity): cutoff for positive 3-fold increase
[8] = 384-well format, cutoff for positive-scoring molecules 3-fold increase, read-out: AK-based Prestwick Library Screening Results, E. coli (increase in extracellular AK activity)
[9] = 384-well format, cutoff for positive-scoring molecules 3-fold increase, read-out: AK-based Prestwick Library Screening Results, A. baumannii (increase in extracellular AK activity)
[10] = 384-well format, cutoff for positive-scoring molecules 3-fold increase, read-out: AK-based Prestwick Library Screening Results, E. faecium (increase in extracellular AK activity)
[11] = 384-well format, cutoff for positive-scoring molecules 3-fold increase, read-out: AK-based Prestwick Library Screening Results, E. cloacae (increase in extracellular AK activity)
[12] = 384-well format, cutoff for positive-scoring molecules 3-fold increase, read-out: AK-based Prestwick Library Screening Results, S. aureus (increase in extracellular AK activity)
[13] = 384-well format, cutoff for positive-scoring molecules 3-fold increase, read-out: AK-based Prestwick Library Screening Results, P. aeruginosa (increase in extracellular AK activity)
[14] = 384-well format, cutoff for positive-scoring molecules 3-fold increase, read-out: AK-based Prestwick Library Screening Results, K. pneumoniae (increase in extracellular AK activity)
[15] = planktonic, cutoff for positive-scoring molecules 3-fold increase, read-out: AK-based Prestwick Library Screening Results, E. coli (fold increase in extracellular AK activity)
[16] = planktonic, cutoff for positive-scoring molecules 3-fold increase, read-out: AK-based Prestwick Library Screening Results, A. baumannii (fold increase in extracellular AK activity)
[17] = planktonic, cutoff for positive-scoring molecules 3-fold increase, read-out: AK-based Prestwick Library Screening Results, E. faecium (fold increase in extracellular AK activity)
[18] = planktonic, cutoff for positive-scoring molecules 3-fold increase, read-out: AK-based Prestwick Library Screening Results, E. cloacae (fold increase in extracellular AK activity)
[19] = planktonic, cutoff for positive-scoring molecules 3-fold increase, read-out: AK-based Prestwick Library Screening Results, S. aureus (fold increase in extracellular AK activity)
[20] = planktonic, cutoff for positive-scoring molecules 3-fold increase, read-out: AK-based Prestwick Library Screening Results, P. aeruginosa (fold increase in extracellular AK activity)
[21] = planktonic, cutoff for positive-scoring molecules 3-fold increase, read-out: AK-based Prestwick Library Screening Results, K. pneumoniae (fold increase in extracellular AK activity)
[22] = cutoff for positive-scoring molecules 3-fold increase, read-out: AK-based Prestwick Library Screening Results, E. coli (fold increase in extracellular AK activity)
[23] = cutoff for positive-scoring molecules 3-fold increase, read-out: AK-based Prestwick Library Screening Results, A. baumannii (fold increase in extracellular AK activity)
[24] = cutoff for positive-scoring molecules 3-fold increase, read-out: AK-based Prestwick Library Screening Results, E. faecium (fold increase in extracellular AK activity)
[25] = cutoff for positive-scoring molecules 3-fold increase, read-out: AK-based Prestwick Library Screening Results, E. cloacae (fold increase in extracellular AK activity)
[26] = cutoff for positive-scoring molecules 3-fold increase, read-out: AK-based Prestwick Library Screening Results, S. aureus (fold increase in extracellular AK activity)
[27] = cutoff for positive-scoring molecules 3-fold increase, read-out: AK-based Prestwick Library Screening Results, P. aeruginosa (fold increase in extracellular AK activity)
[28] = cutoff for positive-scoring molecules 3-fold increase, read-out: AK-based Prestwick Library Screening Results, K. pneumoniae (fold increase in extracellular AK activity)

SMILES: C[C@H](N)[C@H](O)c1cccc(O)c1 [Metaraminol bitartrate]
- fold induction at 50 µM [1, 8]: 1
- fold induction at 50 µM [2, 9]: 0.9
- fold induction at 50 µM [3, 10]: 1
- fold induction at 50 µM [4, 11]: 1.3
- fold induction at 50 µM [5, 12]: 0.7
- fold induction at 50 µM [6, 13]: 0.8
- fold induction at 50 µM [7, 14]: 0.8

SMILES: CN1C[C@H](CNC(=O)OCc2ccccc2)C[C@@H]2c3cccc4c3c(cn4C)C[C@H]21 [Metergoline]
- fold induction at 50 µM ([1]; planktonic E. coli, cutoff for positive-scoring molecules 3-fold increase, read-out: AK-based Prestwick Library Screening Results, E. coli (increase in extracellular AK activity)): 1.2
- fold induction at 50 µM ([2]; planktonic A. baumannii, cutoff for positive-scoring molecules 3-fold increase, read-out: AK-based Prestwick Library Screening Results, A. baumannii (increase in extracellular AK activity)): 1.3
- fold induction at 50 µM ([3]; planktonic E. faecium, cutoff for positive-scoring molecules 3-fold increase, read-out: AK-based Prestwick Library Screening Results, E. faecium (increase in extracellular AK activity)): 1
- fold induction at 50 µM ([4]; planktonic E. cloacae, cutoff for positive-scoring molecules 3-fold increase, read-out: AK-based Prestwick Library Screening Results, E. cloacae (increase in extracellular AK activity)): 1.3
- fold induction at 50 µM ([5]; planktonic S. aureus, cutoff for positive-scoring molecules 3-fold increase, read-out: AK-based Prestwick Library Screening Results, S. aureus (increase in extracellular AK activity)): 1.1
- fold induction at 50 µM ([6]; planktonic P. aeruginosa, cutoff for positive-scoring molecules 3-fold increase, read-out: AK-based Prestwick Library Screening Results, P. aeruginosa (increase in extracellular AK activity)): 1.1
- fold induction at 50 µM ([7]; planktonic K. pneumoniae, cutoff for positive-scoring molecules 3-fold increase, read-out: AK-based Prestwick Library Screening Results, K. pneumoniae (increase in extracellular AK activity)): 1

SMILES: CN(C)C(=N)N=C(N)N [Metformin hydrochloride]
- fold induction at 50 µM [1, 8]: 0.5
- fold induction at 50 µM [2, 9]: 0.4
- fold induction at 50 µM [3, 10]: 0.8
- fold induction at 50 µM [4, 11]: 0.3
- fold induction at 50 µM [5, 12]: 0.4
- fold induction at 50 µM [6, 13]: 0.3
- fold induction at 50 µM [7, 14]: 0.4

SMILES: CC(=O)OC(C)C[N+](C)(C)C (stereo not drawn) [Methacholine chloride]
- fold induction at 50 µM [1, 15]: 0.9
- fold induction at 50 µM [2, 16]: 0.8
- fold induction at 50 µM [3, 17]: 0.9
- fold induction at 50 µM [4, 18]: 1.3
- fold induction at 50 µM [5, 19]: 0.7
- fold induction at 50 µM [6, 20]: 0.9
- fold induction at 50 µM [7, 21]: 0.7

SMILES: C=C1c2cccc(O)c2C(=O)C2=C(O)[C@]3(O)C(=O)C(C(N)=O)=C(O)[C@@H](N(C)C)[C@@H]3[C@@H](O)[C@H]12 [Methacycline hydrochloride]
- fold induction at 50 µM [1, 22]: 3.2
- fold induction at 50 µM [2, 23]: 4.2
- fold induction at 50 µM [3, 24]: 0.9
- fold induction at 50 µM [4, 25]: 0.4
- fold induction at 50 µM [5, 26]: 1.9
- fold induction at 50 µM [6, 27]: 0.2
- fold induction at 50 µM [7, 28]: 0.2

SMILES: CC[N+](C)(CC)CCOC(=O)C1c2ccccc2Oc2ccccc21 [Methantheline bromide]
- fold induction at 50 µM ([1]; planktonic E. coli, positive cutoff 3-fold increase, read-out: AK-based Prestwick library screening result, E. coli (fold increase in extracellular AK activity)): 0.9
- fold induction at 50 µM ([2]; planktonic A. baumannii, positive cutoff 3-fold increase, read-out: AK-based Prestwick library screening result, A. baumannii (fold increase in extracellular AK activity)): 0.8
- fold induction at 50 µM ([3]; planktonic E. faecium, positive cutoff 3-fold increase, read-out: AK-based Prestwick library screening result, E. faecium (fold increase in extracellular AK activity)): 0.9
- fold induction at 50 µM ([4]; planktonic E. cloacae, positive cutoff 3-fold increase, read-out: AK-based Prestwick library screening result, E. cloacae (fold increase in extracellular AK activity)): 1.1
- fold induction at 50 µM ([5]; planktonic S. aureus, positive cutoff 3-fold increase, read-out: AK-based Prestwick library screening result, S. aureus (fold increase in extracellular AK activity)): 0.7
- fold induction at 50 µM ([6]; planktonic P. aeruginosa, positive cutoff 3-fold increase, read-out: AK-based Prestwick library screening result, P. aeruginosa (fold increase in extracellular AK activity)): 0.9
- fold induction at 50 µM ([7]; planktonic K. pneumoniae, positive cutoff 3-fold increase, read-out: AK-based Prestwick library screening result, K. pneumoniae (fold increase in extracellular AK activity)): 0.8

SMILES: CC(=O)/N=c1/sc(S(N)(=O)=O)nn1C [Methazolamide]
- fold induction at 50 µM [1, 15]: 0.5
- fold induction at 50 µM [2, 16]: 0.5
- fold induction at 50 µM [3, 17]: 1.5
- fold induction at 50 µM [4, 18]: 0.7
- fold induction at 50 µM [5, 19]: 0.6
- fold induction at 50 µM [6, 20]: 0.6
- fold induction at 50 µM [7, 21]: 0.5

SMILES: COC(=O)Nc1nc2ccc(SC(C)C)cc2[nH]1 [Methiazole]
- AK-based Prestwick library screening result, E. coli (fold increase in extracellular AK activity) ([1]; planktonic E. coli, […]): 0.4
- AK-based Prestwick library screening result, A. baumannii (fold increase in extracellular AK activity) ([2]; planktonic A. baumannii, positive cutoff 3-fold increase): 0.5
- AK-based Prestwick library screening result, E. faecium (fold increase in extracellular AK activity) ([3]; planktonic E. faecium, positive cutoff 3-fold increase): 0.5
- AK-based Prestwick library screening result, E. cloacae (fold increase in extracellular AK activity) ([4]; planktonic E. cloacae, positive cutoff 3-fold increase): 1.3
- AK-based Prestwick library screening result, S. aureus (fold increase in extracellular AK activity) ([5]; planktonic S. aureus, positive cutoff 3-fold increase): 1.3
- AK-based Prestwick library screening result, P. aeruginosa (fold increase in extracellular AK activity) ([6]; planktonic P. aeruginosa, positive cutoff 3-fold increase): 0.5
- AK-based Prestwick library screening result, K. pneumoniae (fold increase in extracellular AK activity) ([7]; planktonic K. pneumoniae, positive cutoff 3-fold increase): 0.4

SMILES: Cn1cc[nH]c1=S [Methimazole]
- fold induction at 50 µM [1, 22]: 1.2
- fold induction at 50 µM [2, 23]: 1.4
- fold induction at 50 µM [3, 24]: 0.9
- fold induction at 50 µM [4, 25]: 27.1
- fold induction at 50 µM [5, 26]: 1
- fold induction at 50 µM [6, 27]: 1
- fold induction at 50 µM [7, 28]: 1

SMILES: CS(=N)(=O)CC[C@H](N)C(=O)O (stereo partly drawn) [Methionine sulfoximine (L)]
- AK-based Prestwick Library Screening Results, E. coli (fold increase in extracellular AK activity) ([1]; planktonic): 1.3
- AK-based Prestwick Library Screening Results, A. baumannii (fold increase in extracellular AK activity) ([2]; planktonic): 1.0
- AK-based Prestwick Library Screening Results, E. faecium (fold increase in extracellular AK activity) ([3]; planktonic): 1.0
- AK-based Prestwick Library Screening Results, E. cloacae (fold increase in extracellular AK activity) ([4]; planktonic): 1.5
- AK-based Prestwick Library Screening Results, S. aureus (fold increase in extracellular AK activity) ([5]; planktonic): 1.1
- AK-based Prestwick Library Screening Results, P. aeruginosa (fold increase in extracellular AK activity) ([6]; planktonic): 1.2
- AK-based Prestwick Library Screening Results, K. pneumoniae (fold increase in extracellular AK activity) ([7]; planktonic): 0.9

SMILES: CSc1ccc2c(c1)C(N1CCN(C)CC1)Cc1ccccc1S2.O=C(O)/C=C\C(=O)O (stereo not drawn) [Methiothepin maleate]
- AK-based Prestwick Library Screening Results, E. coli (fold increase in extracellular AK activity) ([1]; planktonic): 1.4
- AK-based Prestwick Library Screening Results, A. baumannii (fold increase in extracellular AK activity) ([2]; planktonic): 1.5
- AK-based Prestwick Library Screening Results, E. faecium (fold increase in extracellular AK activity) ([3]; planktonic): 1.0
- AK-based Prestwick Library Screening Results, E. cloacae (fold increase in extracellular AK activity) ([4]; planktonic): 1.8
- AK-based Prestwick Library Screening Results, S. aureus (fold increase in extracellular AK activity) ([5]; planktonic): 1.3
- AK-based Prestwick Library Screening Results, P. aeruginosa (fold increase in extracellular AK activity) ([6]; planktonic): 1.1
- AK-based Prestwick Library Screening Results, K. pneumoniae (fold increase in extracellular AK activity) ([7]; planktonic): 1.3

SMILES: COc1ccccc1OCC(O)COC(N)=O (stereo not drawn) [Methocarbamol]
- fold induction at 50 µM [1, 8]: 0.9
- fold induction at 50 µM [2, 9]: 0.9
- fold induction at 50 µM [3, 10]: 0.9
- fold induction at 50 µM [4, 11]: 1
- fold induction at 50 µM [5, 12]: 0.8
- fold induction at 50 µM [6, 13]: 0.9
- fold induction at 50 µM [7, 14]: 0.6

From patent publication US10004701B2, “Methods and compositions for treating infection” (UNIVERSITY OF ROCHESTER, priority 2012, dated 2018)
